Reference: paper PMC9657321, “Identification of Boronate-Containing Diarylpyrimidine Derivatives as Novel HIV-1 Non-Nucleoside Reverse Transcriptase Inhibitors” (Molecules, 2022)

Legend:
[1] = target: T1, recombinant wild-type HIV-1 RT enzyme (Human immunodeficiency virus type 1 group M subtype B, UniProt P03366); assay: HIV-1 RT inhibition assay (ELISA, Roche RT assay kit); format: biochemical
T1 construct: recombinant wild-type HIV-1 RT enzyme; purchased Roche (Basel, Switzerland)
Experimental: The HIV-1 RT inhibition assay was performed by using an RT assay kit produced by Roche (Basel, Switzerland).
The biotin-labeled dNTPs were incorporated into the cDNA chain in the presence of RT and bound to streptavidin. The washing buffer was used to wash the unbound dNTPs and add the anti-DIG-POD to the MTPs.
The peroxide substrate (ABST) solution was added to the MTPs, when the unbound anti-DIG-PODs were washed out. […] The absorbance of the sample was determined at OD405 nm using a microtiter plate ELISA reader. The percentage inhibitory activity of RT inhibitors was calculated according to the following formula: % inhibition = [O.D. value with RT but without inhibitors − O.D. value with RT and inhibitors]/[O.D. value with RT and inhibitors − O.D. value without RT and inhibitors].

[2] = system: HIV-1 Y188L mutant strain; assay: microbe, parasite or virus in culture; format: cell-based; settings: for EC50: Human immunodeficiency virus 1, MT4, read-out: EC50 Y188L; for SI Y188L: ratio CC50/EC50, Y188L; for RF Y188L: ratio EC50 (resistant viral strain)/EC50 (wild-type viral strain)
Experimental: (§1) All data were calculated using the median optical density (OD) value of three wells.

[3] = system: HIV-1 K103N mutant strain; assay: microbe, parasite or virus in culture; format: cell-based; settings: for EC50: Human immunodeficiency virus 1, MT4, read-out: EC50 K103N, MT-4 cells, K103N, MTT method; for SI K103N: ratio CC50/EC50, K103N; for RF K103N: ratio EC50 (resistant viral strain)/EC50 (wild-type viral strain)
Experimental: as §1

wild-type HIV-1 (IIIB) = assay: microbe, parasite or virus in culture; format: cell-based; settings: for EC50: Human immunodeficiency virus 1, MT4, MT-4 cells, HIV-1 IIIB, MTT method; for RF IIIB: ratio EC50(resistant strain)/EC50(wild-type strain); for SI IIIB: selectivity index, ratio CC50/EC50, IIIB
Experimental: as §1

[4] = system: HIV-1 E138K mutant strain; assay: microbe, parasite or virus in culture; format: cell-based; settings: for EC50: Human immunodeficiency virus 1, MT4, read-out: EC50 E138K; for SI E138K: ratio CC50/EC50, E138K; for RF E138K: ratio EC50 (resistant viral strain)/EC50 (wild-type viral strain)
Experimental: as §1

[5] = system: HIV-1 F227L + V106A mutant strain; assay: microbe, parasite or virus in culture; format: cell-based; settings: for EC50: Human immunodeficiency virus 1, MT4, read-out: EC50 F227L + V106A; for SI F227L + V106A: ratio CC50/EC50, F227L + V106A; for RF F227L + V106A: ratio EC50 (resistant viral strain)/EC50 (wild-type viral strain)
Experimental: as §1

[6] = system: HIV-1 double-mutant strain RES056 (K103N/Y181C); assay: microbe, parasite or virus in culture; format: cell-based; settings: for EC50: Human immunodeficiency virus 1, MT4, read-out: EC50 RES056; for RF RES056: ratio EC50(resistant strain)/EC50(wild-type strain); for SI RES056: selectivity index, ratio CC50/EC50, RES056
Experimental: as §1

[7] = system: HIV-1 L100I mutant strain; assay: microbe, parasite or virus in culture; format: cell-based; settings: for EC50: Human immunodeficiency virus 1, MT4, read-out: EC50 L100I; for SI L100I: ratio CC50/EC50, L100I; for RF L100I: ratio EC50 (resistant viral strain)/EC50 (wild-type viral strain)
Experimental: as §1

[8] = system: HIV-1 Y181C mutant strain; assay: microbe, parasite or virus in culture; format: cell-based; settings: for EC50: Human immunodeficiency virus 1, MT4, read-out: EC50 Y181C, MT-4 cells, Y181C, MTT method; for SI Y181C: ratio CC50/EC50, Y181C; for RF Y181C: ratio EC50 (resistant viral strain)/EC50 (wild-type viral strain)
Experimental: as §1

[9] = Cytotoxicity in mock-infected MT-4 cells, MTT method; format: cell-based; settings: human
Experimental: The 3-(4,5-dimethylthiazol-2-yl)-2,5-diphenyltetrazolium bromide (MTT) method was used to evaluate the antiviral activity and cytotoxicity of the synthesized compounds as previously described. At the beginning of each experiment, stock solutions (10× final concentration) of test compounds were added in 25 μL volumes to two series of triplicate wells for allowing the simultaneous evaluation of their effects on mock- and HIV-infected cells. The serial 5-fold dilutions of the compounds were made in flat-bottomed 96-well microtiter trays directly, including untreated control HIV-1 and mock infected cell samples for each sample using a Biomek 3000 robot (Beckman Instruments, Fullerton, CA, USA). HIV-1 (IIIB) and mutant HIV-1 strains (RES056, F227L/V106A, L100I, K103N, E138K, Y181C, and Y188L) stock (50 μL at 100–300 CCID50) (50% cell culture infectious dose) or culture medium was added to either the infected or mock-infected wells of the microtiter tray. Mock-infected cells were used to evaluate the effect on uninfected cells to assess the cytotoxicity of the test compounds. Exponentially growing MT-4 cells were centrifuged for […] at 1000 rpm (Eppendorf 5424, Hamburg, Germany) and then the supernatant was discarded. The MT-4 cells were resuspended at 6 × 10^5 cells/mL and 50 μL aliquots were transferred to the microtiter tray wells. At 5 days after infection, the viability of mock- and HIV-infected cells was determined spectrophotometrically by means of MTT assay.
(§2) The MTT assay is based on the reduction of yellow-colored MTT (Acros Organics, Geel, Belgium) by mitochondrial dehydrogenase of metabolically active cells to form a blue-purple formazan. The absorbances were read in an eight-channel computer-controlled photometer at the wavelengths of 540 and 690 nm. All data were calculated using the median optical density (OD) value of three wells.

[10] = system: wild-type and mutant HIV-1 strains; assay: Anti-HIV-1 activity in MT-4 cells, MTT method, panel of strains (range over strains); format: cell-based; settings: Human immunodeficiency virus 1, MT4, read-out: EC50 values over wild-type and a panel of single mutations
Experimental: […]. […] […].
The 3-(4,5-dimethylthiazol-2-yl)-2,5-diphenyltetrazolium bromide (MTT) method was used to evaluate the antiviral activity and cytotoxicity of the synthesized compounds as previously described. At the beginning of each experiment, stock solutions (10× final concentration) of test compounds were added in 25 μL volumes to two series of triplicate wells for allowing the simultaneous evaluation of their effects on mock- and HIV-infected cells. The serial 5-fold dilutions of the compounds were made in flat-bottomed 96-well microtiter trays directly, including untreated control HIV-1 and mock infected cell samples for each sample using a Biomek 3000 robot (Beckman Instruments, Fullerton, CA, USA). […] At 5 days after infection, the viability of mock- and HIV-infected cells was determined spectrophotometrically by means of MTT assay.
as §2

Row | SMILES | IC50 [1] | EC50 [2] | SI Y188L [2] | RF Y188L [2] | EC50 [3] | SI K103N [3] | RF K103N [3] | EC50 (wild-type HIV-1 (IIIB)) | RF IIIB (wild-type HIV-1 (IIIB)) | EC50 [4] | SI E138K [4] | RF E138K [4] | EC50 [5] | RF F227L + V106A [5] | EC50 [6] | RF RES056 [6] | EC50 [7] | RF L100I [7] | RF Y181C [8] | CC50 at 5 days [9] | other results
1 | Cc1cc(C#N)cc(C)c1Oc1nc(Nc2ccc(B3OC(C)(C)C(C)(C)O3)cc2)nc2c1COC2 [Compound 3c, 3,5-Dimethyl-4-((2-((4-(4,4,5,5-tetramethyl-1,3,2-dioxaborolan-2-yl)phenyl)amino) -5,7-dihydrofuro [3,4-d]pyrimidin-4-yl)oxy)benzonitrile] | 228 ± 45 nM | 4520 ± 1540 nM | 21 | 87.9 | 120 ± 19 nM | 792 | 2.3 | 51 ± 15 nM | 1.0 | 130 ± 41 nM | 731 | 2.5 | 9100 ± 2640 nM | 177.2 | 25800 ± 7930 nM | 503 | 2430 ± 302 nM | 47.3 | 85.1 | 94800 ± 32200 nM | SI IIIB (wild-type HIV-1 (IIIB)): 1847; SI F227L + V106A [5]: 10; SI RES056 [6]: < 1; SI L100I [7]: 39; EC50 [8]: 4370 ± 2190 nM; SI Y181C [8]: 22; melting point: 149 to 151 °C
2 | Cc1cc(/C=C/C#N)cc(C)c1Oc1nc(Nc2ccc(B3OC(C)(C)C(C)(C)O3)cc2)nc2sccc12 [Compound 4b, (E)-3-(3,5-Dimethyl-4-((2-((4-(4,4,5,5-tetramethyl-1,3,2-dioxaborolan-2-yl)phenyl)amino)thieno [2,3-d]pyrimidin-4-yl)oxy)phenyl)acrylonitrile] | 47 ± 1 nM | 2520 ± 238 nM | 9 | 246.1 | 8 ± 2 nM | 2866 | 0.8 | 10 ± 3 nM | 1.0 | 30 ± 9 nM | 732 | 3.0 | 3210 ± 1970 nM | 313.5 | 2300 ± 660 nM | 224 | 280 ± 55 nM | 27.4 | 65.9 | 22100 ± 3690 nM | SI IIIB (wild-type HIV-1 (IIIB)): 2161; SI F227L + V106A [5]: 7; fold more potent than 3b ([6]; RES056 EC50, versus 3b): 75 fold; SI RES056 [6]: 10; SI L100I [7]: 79; EC50 [8]: 675 ± 188 nM; SI Y181C [8]: 33
3 | Cc1cc(/C=C/C#N)cc(C)c1Oc1nc(Nc2ccc(B3OC(C)(C)C(C)(C)O3)cc2)nc2c1COC2 [Compound 4c, (E)-3-(3,5-Dimethyl-4-((2-((4-(4,4,5,5-tetramethyl-1,3,2-dioxaborolan-2-yl)phenyl)amino)-5,7-dihydrofuro [3,4-d]pyrimidin-4-yl)oxy)phenyl)acrylonitrile] | 200 ± 28 nM | 3960 ± 894 nM | 20 | 290.3 | 26 ± 5 nM | 3110 | 1.9 | 14 ± 6 nM | 1.0 | 39 ± 18 nM | 2036 | 2.9 | 5880 ± 2520 nM | 431.5 | 13900 ± 9320 nM | 1018 | 553 ± 152 nM | 40.6 | 94.2 | 80300 ± 31300 nM | SI IIIB (wild-type HIV-1 (IIIB)): 5890; SI F227L + V106A [5]: 14; SI RES056 [6]: 6; SI L100I [7]: 145; EC50 [8]: 1280 ± 489 nM; SI Y181C [8]: 63; melting point: 134 to 136 °C
4 | Cc1cc(/C=C/C#N)cc(C)c1Oc1nc(Nc2ccc(B3OC(C)(C)C(C)(C)O3)cc2)nc2ccsc12 [Compound 4a, (E)-3-(3,5-Dimethyl-4-((2-((4-(4,4,5,5-tetramethyl-1,3,2-dioxaborolan-2-yl)phenyl)amino)thieno [3,2-d]pyrimidin-4-yl)oxy)phenyl)acrylonitrile] | 167 ± 31 nM | 1610 ± 508 nM | > 148 |  | 5 ± 6 nM | > 47,170 | 0.6 | 9 ± 2 nM | 1.0 | 21 ± 7 nM | > 11,261 | 2.4 | > 1810 nM | 209.7 | > 238000 nM | > 27516 | 186 ± 32 nM | 21.4 | 74.8 | > 238000 nM | fold more potent than NVP ([7]; L100I EC50, versus NVP): 3.3 fold; SI L100I [7]: > 1285; SI Y181C [8]: > 368; EC50 [10]: 5 to 648 nM
5 | Cc1cc(C#N)cc(C)c1Oc1nc(Nc2ccc(B3OC(C)(C)C(C)(C)O3)cc2)nc2ccsc12 [Compound 3a, 3,5-Dimethyl-4-((2-((4-(4,4,5,5-tetramethyl-1,3,2-dioxaborolan-2-yl)phenyl)amino)thieno [3,2-d]pyrimidin-4-yl)oxy)benzonitrile] | 354 ± 43 nM | 6020 ± 3140 nM |  | 94.7 | 81 ± 8 nM |  | 1.3 | 64 ± 21 nM | 1.0 | 193 ± 77 nM |  | 3.0 | 4950 ± 1980 nM | 77.8 | > 27400 nM | > 431 | 2510 ± 155 nM | 39.4 | 98.8 | 27400 ± 1200 nM | EC50 [8]: 6290 ± 3270 nM
